Data: ChEMBL document CHEMBL5154891, “Discovery of AZD4625, a Covalent Allosteric Inhibitor of the Mutant GTPase KRASG12C” (J Med Chem, 2022)
Active and inactive are the calls of the source. No cut-off for these calls is given here.

Assays:
[1] = Stability in dog whole blood; assay type: ADME, tissue-based, Canis lupus familiaris
[2] = Metabolic stability in rat hepatocytes assessed as intrinsic clearance per 10^6 cells at 5 uM measured after 60 mins by UHPLC/UV/MS/MS; assay type: ADME, cell-based, Hepatocyte; conditions: for hepatocyte CLint at 5 µM: read-out: CLH
[3] = Stability in rat whole blood; assay type: ADME, tissue-based
GTPase KRas = GTPase KRas (Homo sapiens, UniProt P01116, G12C); test: Inhibition of C-terminal Avi and 6His-tagged human KRAS 2B G12C mutant (1 to 166 residues) expressed in Escherichia coli BL21 (DE3) assessed as inhibition of SOS mediated nucleotide exchange preincubated for 4 hrs followed by SOS1 addition by HTRF assay
[4] = Bioavailability in Han Wistar rat at 2 micromol/kg, po and 1 umol/kg, iv; assay type: ADME, organism-based; conditions: in vivo; for bioavailability: Han Wistar, 2 µmol/kg
[5] = Lipophilicity, log D of the compound at pH 7.4; conditions: buffer, pH 7.4, logD
in vitro = conditions: human, liver microsomes, CLH
[6] = Stability in monkey whole blood; assay type: ADME, tissue-based, Macaca mulatta; conditions: rhesus monkey
[7] = Stability in mouse whole blood; assay type: ADME, tissue-based
[8] = Inhibition of spheroid proliferation in human NCI-H358 cells harboring KRAS G12C mutant measured after 6 days by CellTiter-Glo assay; assay type: functional, cell-based; conditions: NCI-H358, 144 h
MIA PaCa-2 = test: Antitumor activity against human MIA PaCa-2 cells harbouring KRAS G12C mutant xenografted in athymic nude Foxn1 nu mouse assessed as tumor regression at 100 mg/kg, po administered daily for 21 days and measured twice weekly by caliper analysis; assay type: functional, organism-based; conditions: time 21.0 day
A549 = test: Inhibition of spheroid proliferation in human A549 cells […] measured after 6 days by CellTiter-Glo assay; assay type: functional, cell-based; conditions: A549, 144 h
[9] = molecular target: T1, Ribosomal protein S6 kinase alpha-1 (Homo sapiens, UniProt Q15418); test: Inhibition of p90RSK phosphorylation in human Calu-6 cells harboring KRAS Q61K measured for 2 hrs by immunofluorescence assay; assay type: cell-based
[10] = Hepatic blood flow in Wistar Han rat; assay type: ADME
[11] = molecular target: Ribosomal protein S6 kinase alpha-1 (Homo sapiens, UniProt Q15418, G12C); test: Inhibition of p90RSK phosphorylation in human NCI-H358 cells harboring KRAS G12C mutant measured for 2 hrs by immunofluorescence assay; assay type: cell-based
[12] = Hepatic blood flow in Beagle dog; assay type: ADME, Canis lupus familiaris
[13] = molecular target: T2, Oxidation resistance protein 1 (Homo sapiens) (UniProt Q8N573); test: Binding affinity to OXR1 in human […] cell lysate assessed as trypsin-mediated biotinylated cysteine residues digestion by measuring reduction in protein level at 4 uM pretreated for 2 hrs followed by labelled with iodoacetamide-desthiobiotin by MS analysis relative to control; assay type: subcellular; conditions: NCI-H358
T2 sequence (whole entry): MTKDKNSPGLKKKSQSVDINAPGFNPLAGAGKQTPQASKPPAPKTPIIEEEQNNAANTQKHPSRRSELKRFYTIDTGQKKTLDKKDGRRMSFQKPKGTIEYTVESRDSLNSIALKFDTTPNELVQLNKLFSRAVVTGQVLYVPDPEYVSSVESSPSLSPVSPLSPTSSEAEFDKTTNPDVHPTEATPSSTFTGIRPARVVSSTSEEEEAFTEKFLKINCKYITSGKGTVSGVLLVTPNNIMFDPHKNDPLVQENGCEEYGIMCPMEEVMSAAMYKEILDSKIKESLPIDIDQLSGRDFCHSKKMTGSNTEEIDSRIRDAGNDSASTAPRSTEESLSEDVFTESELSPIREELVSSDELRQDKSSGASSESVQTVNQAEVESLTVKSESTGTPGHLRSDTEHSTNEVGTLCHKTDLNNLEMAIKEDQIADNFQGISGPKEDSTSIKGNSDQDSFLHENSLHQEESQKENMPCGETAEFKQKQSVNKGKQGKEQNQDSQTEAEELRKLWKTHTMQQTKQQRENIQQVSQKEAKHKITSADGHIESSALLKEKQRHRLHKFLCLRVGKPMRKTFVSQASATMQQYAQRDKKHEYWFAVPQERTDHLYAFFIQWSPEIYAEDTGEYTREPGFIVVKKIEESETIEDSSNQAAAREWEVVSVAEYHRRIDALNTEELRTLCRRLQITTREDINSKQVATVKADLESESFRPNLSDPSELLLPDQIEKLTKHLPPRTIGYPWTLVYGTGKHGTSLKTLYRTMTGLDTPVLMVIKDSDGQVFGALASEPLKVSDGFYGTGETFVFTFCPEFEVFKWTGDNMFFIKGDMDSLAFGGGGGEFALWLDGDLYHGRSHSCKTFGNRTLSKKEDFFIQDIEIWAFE

[14] = Metabolic stability in human Hepatocyte assessed as intrinsic clearance measured per 10^6 cells; assay type: ADME, cell-based; conditions: hepatocytes, read-out: CLH
[15] = molecular target: Elongation factor 2 (Homo sapiens) (UniProt P13639); test: Binding affinity to EEF2 in human […] cell lysate assessed as trypsin-mediated biotinylated cysteine residues digestion by measuring reduction in protein level at 4 uM pretreated for 2 hrs followed by labelled with iodoacetamide-desthiobiotin by MS analysis relative to control; assay type: subcellular; conditions: NCI-H358
[16] = Toxicity in athymic nude-Foxn1nu mouse xenografted with human MIA PaCa-2 cells assessed as tolerability at 4 to 100 mg/kg, po administered for 21 days; assay type: organism-based; conditions: in vivo, 504 h, dose 4-100 mg/kg, time 21 day
Mus musculus = test: In vivo inhibition of RAS/MAPK pathway in human MIA PaCa-2 cells harbouring KRAS G12C mutant xenografted in athymic nude Foxn1 nu mouse assessed as reduction in DUSP6 expression measured at 3 to 6 hrs post dose; assay type: functional; conditions: dose 4-100 mg/kg, time 3-6 hrs, DDE = dose-dependent effect
[17] = molecular target: T1, Ribosomal protein S6 kinase alpha-1; test: Inhibition of p90RSK phosphorylation in human PC-9 cells measured for 2 hrs by immunofluorescence assay; assay type: cell-based
[18] = Hepatic blood flow in CD-1 mouse; assay type: ADME
[19] = Drug metabolism in human hepatocyte assessed as oxidative metabolism; assay type: ADME, cell-based; conditions: hepatocytes, 1 h, time 60 min

Row | Structure (SMILES) | hepatocyte CLint at 5 µM [2] | IC50 (GTPase KRas) | bioavailability [4] | logD [5] | microsomal CLint at 1 h, 5 µM (in vitro) | further results
1 | C=CC(=O)N1CCN2c3ncnc4c(F)c(-c5c(O)cccc5F)c(Cl)c(c34)OC[C@@H]2C1 | 79 µL/min/1e6 cells | 19 nM | 0% | 2.9 | 13 µL/min/mg | Stability [1]: Unstable; Stability [3]: Unstable; Stability [6]: Unstable; Stability [7]: Unstable
2 | C=CC(=O)N1C[C@H]2COc3c(Cl)c(-c4c(O)cccc4F)c(F)c4ncnc(c34)N2C[C@H]1C (stereo in doubt; 32) | – | 64 nM | – | – | – | CLint_hep ([2]; 1 h, 5 µM): 43 uL/min/1e6 cells; GI50 ([8]; time 6 day): 284 nM; F ([4]; po, at 2 µmol/kg): 31%
3 | C=CC(=O)N1C[C@@H]2CCOc3c(Cl)c(-c4c(O)cccc4F)c(F)c4ncnc(c34)N2C[C@H]1C | 40 µL/min/1e6 cells | 3 nM | 75% | 3.2 | 28 µL/min/mg | Activity (MIA PaCa-2): Active; IC50 (A549): 1670 nM; IC50 [9]: > 30 µM; QH [10]: 72 mL/min/kg; IC50 [11]: 36 nM; QH [12]: 55 mL/min/kg; IC50 [8]: 4.1 nM; Activity [13]: Active; hepatocyte CLint [14]: < 2 µL/min/1e6 cells; Activity [15]: Active; Activity [16]: Non-Toxic; Activity (Mus musculus): Dde; IC50 [17]: 4.95 µM; QH [18]: 152 mL/min/kg
4 | C=CC(=O)N1CCN2c3ncnc4cc(-c5c(C)ccc6[nH]ncc56)c(Cl)c(c34)OC[C@H]2C1 (atropisomer aR) | – | 171 nM | – | – | – | –
5 | C=CC(=O)N1CCN2c3ncnc4cc(-c5c(C)ccc6[nH]ncc56)c(Cl)c(c34)OC[C@@H]2C1 (single isomer, unassigned; atropisomer 2) | – | 27100 nM | – | – | – | –
6 | C=CC(=O)N1C[C@H]2COc3c(Cl)c(-c4c(O)cccc4F)c(F)c4ncnc(c34)N2C[C@H]1C (stereo in doubt; 30) | 64 µL/min/1e6 cells | 117 nM | 28% | 3.2 | 24 µL/min/mg | –
7 | C=CC(=O)N1C[C@@H]2CCOc3c(Cl)c(-c4c(O)cccc4F)c(F)c4ncnc(c34)N2C[C@@H]1C | 143 µL/min/1e6 cells | 138 nM | 51% | 3.2 | 203 µL/min/mg | –
8 | C=CC(=O)N1CCN(c2ncnc3cc(-c4c(C)ccc5[nH]ncc45)c(Cl)cc23)CC1 | 56 µL/min/1e6 cells | – | – | 3.5 | 38 µL/min/mg | –
9 | C=CC(=O)N1CCN2c3ncnc4cc(-c5c(C)ccc6[nH]ncc56)c(Cl)c(c34)OCC[C@@H]2C1 (single isomer, unassigned; atropisomer 1) | 50 µL/min/1e6 cells | 15500 nM | – | 3.4 | 192 µL/min/mg | –
10 | C=CC(=O)N1CCN2c3ncnc4cc(-c5c(C)ccc6[nH]ncc56)c(Cl)c(c34)OC[C@@H]2C1 (atropisomer aS) | 109 µL/min/1e6 cells | – | – | – | 58 µL/min/mg | –
11 | C=CC(=O)N1C[C@H]2COc3c(Cl)c(-c4c(O)cccc4F)c(F)c4ncnc(c34)N2C[C@@H]1C | 238 µL/min/1e6 cells | 135 nM | 31% | 3.4 | 110 µL/min/mg | –
12 | C=CC(=O)N1CCN2c3ncnc4cc(-c5c(C)ccc6[nH]ncc56)c(Cl)c(c34)OC[C@H]2C1 (single isomer, unassigned; atropisomer 2) | – | 17800 nM | – | – | – | –
13 | C=CC(=O)N1CCN2c3ncnc4cc(-c5c(C)ccc6[nH]ncc56)c(Cl)c(c34)OCC[C@H]2C1 (single isomer, unassigned; atropisomer 2) | 46 µL/min/1e6 cells | 9 nM | 16% | 3.4 | 189 µL/min/mg | Drug metabolism [19]: Metabolite_Detected; hepatocyte CLint [14]: 20 µL/min/1e6 cells
14 | C=CC(=O)N1CCN2c3ncnc4c(F)c(-c5c(O)cccc5F)c(Cl)c(c34)OCC[C@H]2C1 | 99 µL/min/1e6 cells | < 5 nM | 36% | 2.7 | 66 µL/min/mg | hepatocyte CLint [14]: 12 µL/min/1e6 cells
